From US7501434B2, “6-carboxy-normorphinan derivatives, synthesis and uses thereof” (Wyeth, priority 2006, dated 2009)

Experiments:
[1] = molecular target: μ opioid (Homo sapiens, UniProt P35372); settings: from WO2006/127898 and WO2006/127899; cited from earlier work
[2] = white crystalline powder from Mallinckrodt Pharmaceuticals; cited from earlier work
[3] = molecular target: Kappa 1 (UniProt P41144); assay type: binding
[4] = molecular target: Mu (h) (Homo sapiens, UniProt P35372); assay type: binding
Chain of Mu (h) (P35372 whole entry): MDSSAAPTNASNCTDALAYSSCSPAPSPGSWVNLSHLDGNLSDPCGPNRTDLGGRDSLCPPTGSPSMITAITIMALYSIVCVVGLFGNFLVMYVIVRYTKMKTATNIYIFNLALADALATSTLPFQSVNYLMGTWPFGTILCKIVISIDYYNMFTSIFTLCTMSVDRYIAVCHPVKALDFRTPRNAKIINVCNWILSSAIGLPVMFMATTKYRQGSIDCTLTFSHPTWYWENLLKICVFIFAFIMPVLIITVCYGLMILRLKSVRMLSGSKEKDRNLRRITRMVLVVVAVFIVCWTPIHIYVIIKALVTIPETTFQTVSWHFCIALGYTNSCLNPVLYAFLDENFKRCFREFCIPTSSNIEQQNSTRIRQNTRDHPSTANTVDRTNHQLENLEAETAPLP

[5] = molecular target: Delta 2 (h) (Homo sapiens, UniProt P41143); assay: Neurotransmitter assay (radioligand binding), Delta 2 (h); settings: radioligand [3H]-Naltrindole
Chain of Delta 2 (h) (P41143 whole entry): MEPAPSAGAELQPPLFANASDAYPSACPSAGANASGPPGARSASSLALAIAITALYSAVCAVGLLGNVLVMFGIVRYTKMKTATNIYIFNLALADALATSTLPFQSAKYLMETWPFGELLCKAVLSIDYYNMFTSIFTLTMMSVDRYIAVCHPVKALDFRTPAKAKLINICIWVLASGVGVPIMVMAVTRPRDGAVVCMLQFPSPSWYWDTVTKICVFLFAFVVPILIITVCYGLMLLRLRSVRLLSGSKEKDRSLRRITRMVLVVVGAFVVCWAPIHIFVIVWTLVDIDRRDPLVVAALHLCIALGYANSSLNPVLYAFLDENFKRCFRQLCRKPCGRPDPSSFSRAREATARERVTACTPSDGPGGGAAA

[6] = Administration in GI-physiology altered dogs (plasma pharmacokinetics); assay type: in vivo; settings: male, beagle, dog, po, 50 mg, single 50 mg capsule
Description: A 50 mg capsule formulation of Compound Ia was screened in gastrointestinal (GI) physiology regulated male beagle dogs. Atropine (˜20 μg/kg; IV) and pentagastrin (˜10 μg/kg; IM) were administered 15 minutes prior to formulation administration and another dose of pentagastrin (10 μg/kg; IM) was administered 30 minutes post dose. Atropine slows down canine GI motility and pentagastrin decreases pH resulting in GI conditions almost similar to that of humans. The capsules ([…]) via oral administration following an overnight fast and blood samples were drawn at 0 (predose), 0.5, 1, 2, 3, 4, 6, 8, 12, 24 and 48 hours after dosing; plasma was separated and assayed for Compound Ia content. All dogs were fed 4 hours post dose.
50 mg Compound Ia capsule contained neat 51.5 mg of Compound Ia 97% purity (50 mg of Compound Ia), filled in #AA-DB HGC Swedish orange capsule.
Bioanalytical results were received and a preliminary PK assessment was performed. Individual dog plasma Compound Ia concentration-time profiles were subjected to noncompartmental pharmacokinetic analyses (WinNonlin, Model 200). The following pharmacokinetic parameters were determined for each dog, and descriptive statistics were calculated: AUC, Cmax, and tmax.

[7] = Aqueous solubility; assay type: physicochemical; settings: thermodynamic from solid; pH: 2.2, water
Description: >56 mg/ml (pH: 2.2) by adding certain additive amounts of I-1 to 1 ml of water.

[8] = Partition coefficient determination (1-octanol/water); assay type: physicochemical; settings: pH: 2.2
Description: The partition coefficient of Compound I-1 was determined by the following method. • 1. 20.131 mg of Compound I-1 was dissolved in 2 mL of water saturated with 1-octanol. • 2. 2 mL of 1-octanol saturated with water was added to the solution from step 1. • 3. The two layers were shaken over night at room temperature. • 4. The two layers were analyzed for the concentration of Compound I-1.

[9] = molecular target: T1, human recombinant Mu opioid receptors (Homo sapiens, UniProt P35372); assay: cell-based
T1 construct: expressed in transfected cells; host or cells: CHO cells
T1 sequence (P35372 whole entry): as the sequence (P35372 whole entry) above

Chain of μ opioid (P35372 whole entry): as above

Which “Activity at μ opioid receptor (agonist/antagonist)” value [1] does the source give for `C[N@@+]1(CC2CC2)CC[C@]23c4c5ccc(O)c4O[C@H]2C(=O)CC[C@@]3(O)C1C5` [R-methylnaltrexone] here?
Its value is “antagonist activity”.

For `C[N+]1(CC2CC2)CC[C@]23c4c5ccc(O)c4O[C@H]2C(=O)CC[C@@]3(O)[C@H]1C5` (stereo partly shown) [S-methylnaltrexone], which “Activity at μ opioid receptor (agonist/antagonist)” value [1] is on record?
The value was “peripheral μ opioid agonist”.

With `C[N+]1(CC2CC2)CC[C@]23c4c5ccc(O)c4O[C@H]2C(=O)CC[C@@]3(O)[C@H]1C5` (stereo partly shown) [methylnaltrexone] as the compound, how does the Solubility in water [2] read?
The Solubility in water was “freely soluble in water”.

What does the source list for `C[N+]1(CC2CC2)CC[C@]23c4c5ccc(O)c4O[C@H]2[C@](O)(C(=O)O)C[C@@]3(O)[C@H]1C5` (stereo partly drawn) [Compound Ia, (3R,4R,4aS,6aR,11bS)-6-carboxy-3-(cyclopropylmethyl)-4-a,6,8-trihydroxy-3-methyl-1,2,3,4,4a,5,6,6a-octahydro-4,11-methano[1]benzofuro[3′,2′:2,3]cyclopenta[1,2-c]pyridin-3-ium]?
Percent Inhibition (Average; N = 2) [3]: 82.09%; Percent Inhibition (Average; N = 2) [4]: 81.62%; Percent Inhibition (Average; N = 2) [5]: 44.47%; AUC(0-inf) ([6]; Dog 1, PO): 4690 ng·h/mL; AUC(0-t) ([6]; Dog 1, PO): 4630 ng·h/mL; Cmax ([6]; Dog 1, PO): 825 ng/mL; Tmax ([6]; Dog 1, PO): 2 h; half-life ([6]; Dog 1, PO): 3.9 h; AUC(0-inf) ([6]; Dog 2, PO): 7740 ng·h/mL; AUC(0-t) ([6]; Dog 2, PO): 7720 ng·h/mL; Cmax ([6]; Dog 2, PO): 1670 ng/mL; Tmax ([6]; Dog 2, PO): 3 h; half-life ([6]; Dog 2, PO): 2.8 h; AUC(0-inf) ([6]; Dog 3, PO): 6220 ng·h/mL; AUC(0-t) ([6]; Dog 3, PO): 6210 ng·h/mL; Cmax ([6]; Dog 3, PO): 1580 ng/mL; Tmax ([6]; Dog 3, PO): 1 h; half-life ([6]; Dog 3, PO): 1.1 h; AUC(0-inf) ([6]; Mean, N 3 dogs): 6220 ng·h/mL; AUC(0-t) ([6]; Mean, N 3 dogs): 6190 ng·h/mL; Cmax ([6]; Mean, N 3 dogs): 1360 ng/mL; Tmax ([6]; Mean, N 3 dogs): 2 h; half-life ([6]; Mean, N 3 dogs): 2.6 h; AUC(0-inf) ([6]; Median, N 3 dogs): 6220 ng·h/mL; AUC(0-t) ([6]; Median, N 3 dogs): 6210 ng·h/mL; Cmax ([6]; Median, N 3 dogs): 1580 ng/mL; Tmax ([6]; Median, N 3 dogs): 2 h; half-life ([6]; Median, N 3 dogs): 2.8 h; solubility [7]: > 56 mg/mL; logP [8]: -2.15; IC50 [9]: 170 nM
